Test results from patent publication US10590422B2, “Anticancer therapeutic intervention” (PHYZAT BIOPHARMACEUTICALS, LDA., priority 2017, dated 2020).
d = 2'-deoxy (DNA); r = 2'-OH (RNA)

Key:
[1] = system: human colon cancer HTC-116 cells; assay: Cell proliferation assay (calcein-AM) in human colon cancer HTC-116 cells; format: cell-based; settings: for cell proliferation / proliferation: treatment 6 h; for cell proliferation: 72 h exposure, FIG. 14; for proliferation: at 72 h, 0.17% Lipofectamine 2000 or 0.1% Injectin, FIGS. 19B and 20B
Protocol: (§1) SK-HEP-1, T24, HT-1080 and HCT-116 cell lines were maintained in a humidified atmosphere of 5% CO2 at 37° C. SK-HEP-1 cells were grown in RPMI-1640 (Sigma, St. Louis, Mo.) supplemented with 20% fetal bovine serum (FBS) (Gibco, UK), 100 U/mL penicillin G, 0.25 μg/mL amphotericin B, 100 μg/mL streptomycin (Gibco, UK), 25 mM sodium bicarbonate (Merck, Germany) and 25 mM N-2-hydroxyethylpiperazine-N′-2-ethanosulfonic acid (HEPES) (Sigma, St. Louis, Mo.). T24 and HT-1080 cells were grown, respectively, in Dulbecco's Modified Eagle's Medium (DMEM)—high glucose (Sigma, St. Louis, Mo.) and DMEM—low glucose (Sigma, St. Louis, Mo.), supplemented with 10% FBS (Gibco, UK), 100 U/mL penicillin G, 0.25 μg/mL amphotericin B, 100 μg/mL streptomycin (Gibco, UK), 25 mM sodium bicarbonate (Merck, Germany) and 25 mM HEPES (Sigma, St. Louis, Mo.). HCT-116 cells were grown in McCoy's 5A (Sigma, St. Louis, Mo.) supplemented with 10% FBS (Gibco, UK), 100 U/mL penicillin G, 0.25 μg/mL amphotericin B, 100 μg/mL streptomycin (Gibco, UK), 25 mM sodium bicarbonate (Merck, Germany) and 25 mM HEPES (Sigma, St. Louis, Mo.). For all cell lines the medium was changed every 2 days, and cells reached confluence 3-4 days after initial seeding. For subculturing, cells were dissociated with 0.25% trypsin-ethylenediaminetetraacetic acid (EDTA) (Sigma, St. Louis, Mo.), split 1:15 or 1:20 and subcultured in a 21-cm^2 growth area (Sarstedt, Germany).
Cell proliferation was measured using calcein-AM (Thermo Fisher Scientific, USA). The membrane permeant calcein-AM, a nonfluorescent dye, is taken up and converted by intracellular esterases to membrane impermeant calcein, which emits green fluorescence. Cells were plated in 96-well plates with black walls clear bottom (BD Biosciences, USA) and incubated 24 h under normal growth conditions. Cells were incubated with test items at 37° C., 5% C02. After the incubation period, serum and antibiotic was restored and cells were further incubated at normal conditions during 72 h. After treatment with test substances or vehicle, cells were washed twice with Hanks' medium and loaded with 2 μM calcein-AM in Hanks' medium, at 37° C. for 30 min. Fluorescence was measured at 485 nm excitation and 530 nm emission wavelengths in a microplate spectrofluorometer (Gemini EM, Molecular Devices). Nine consecutive fluorescence measurements are performed per well, to allow fluorescence readings in the whole area of the well, which was then considered for the calculation of mean fluorescence per well. To determine minimum staining for calcein (calceinmin), eight wells were treated with ethanol 30 min before calcein-AM addition. The percent cell number is calculated as [(calceinsample)/(calceincontrol)]×100.

LAT1 = LAT1 activity: [^14C]-L-leucine uptake in SK-HEP-1 cells after LAT1 gene silencing; format: cell-based, human; settings: for inhibiting sodium-independent [^14C]-L-leucine transport: LAT1 siRNA, general statement, conditions not given; for [^14C]-L-leucine (0.25 μM) uptake at initial rate of uptake (1 min): liver carcinoma SK-HEP-1 cells, 10 nM siRNA, treatment 6 h, at 24 h and 48 h, 0.4% Lipofectamine 2000, FIGS. 5A and 5C
Protocol: Cells were plated in 24-well plates (Sarstedt, Germany) and grown until confluence was reached. On the day of the experiment, cell culture medium was aspirated and cells were preincubated for 15 min in Hanks' medium (NaCl 140 mM, KCl 5 mM, MgSO4.7H2O 0.8 mM, K2HPO4 0.33 mM, KH2PO4 0.44 mM, MgCl2.6H2O 1 mM, CaCl2) 0.025 mM, Tris-HCl 9.75 mM, pH 7.4). Uptake was initiated by addition of Hanks' medium with 0.25 μM [^14C]-L-leucine in the absence and in the presence of 3 mM unlabeled L-leucine. During preincubation and incubation cells were continuously shaken and maintained at 37° C. Uptake was terminated after 1 min by rapid removal of uptake solution by means of a vacuum pump connected to a Pasteur pipette, followed by a rapid wash with Hanks' medium. Subsequently, cells were solubilized in 0.1% vol/vol Triton X-100 (dissolved in 5 mM Tris-HCl, pH 7.4), and radioactivity was measured by liquid scintillation counting.
(§2) Cells were plated in 24-well (Sarstedt, Germany) or 6-well plates (Sarstedt, Germany) or 96-well plates with black walls clear bottom (BD Biosciences, USA) and incubated 24 h under normal growth conditions. siRNAs against LAT1 and transfection agent were diluted at desired concentrations and mixed according to transfection agent manufacturer's instructions. The mixture was incubated 20 min at RT for siRNA-complex formation, after which it was added to the cells and incubated at 37° C., 5% CO2. After the incubation period, serum and antibiotic was restored and cells were further incubated at normal conditions for the desired time points until evaluation of LAT1 activity or LAT1 expression (immunoblotting and RT-qPCR).

LAT1 mRNA [2] = assay: LAT1 gene expression (RT-qPCR, relative to GAPDH) after LAT1 gene silencing in SK-HEP-1 cells; format: cell-based, human; settings: liver carcinoma SK-HEP-1 cells; 10 nM siRNA; treatment 6 h; at 24 h; Lipofectamine 2000; FIG. 4A
Protocol: as §1
(§3) Total RNA was isolated and purified using the SV Total RNA Isolation System (Promega, USA) according to manufacturer's instructions. RNA quality and concentration were verified in the NanoDrop ND1000 Spectrophotometer (Thermo Scientific, USA), and RNA integrity and genomic DNA contamination were evaluated by agarose gel electrophoresis. Total RNA (1 μg) was converted into cDNA using the Maxima Scientific First Strand cDNA Synthesis Kit for RT-qPCR (Thermo Scientific, USA), according to instructions. The following protocol was used: 1st step, 10 min at 25° C.; 2nd step, 15 min at 50° C.; 3rd step, 5 min at 85° C. cDNA was used for qPCR analysis using Maxima SYBR Green qPCR Master Mix (Thermo Scientific, USA) in the StepOnePlus instrument (Applied Biosystems, USA). QuantiTect Primer Assay for LAT1 and ASCT2 and for the endogenous control gene GAPDH (Quiagen, Germany) were used. The qPCR reaction was performed in 96-well PCR plates (Sarstedt, Germany) as follows: one cycle of 10 min at 95° C., followed by 40 PCR cycles at 95° C. 15 s and 60° C. 60 s. […] No template controls were always evaluated for each target gene. Quantification cycle (Cq) values were generated automatically by the StepOnePlus 2.3 Software and the ratio of the target gene was expressed in comparison to the endogenous control gene GAPDH.
as §2

LAT1 mRNA [3] = assay: LAT1 gene expression (RT-qPCR) after LAT1 gene silencing in human colon cancer HTC-116 cells; format: cell-based; settings: treatment 6 h, 72 h, 0.17% Lipofectamine 2000 or 0.1% Injectin, FIG. 19A
Protocol: as §1, §3, §2

ASCT2 mRNA = assay: ASCT2 gene expression (RT-qPCR) after ASCT2 gene silencing in human colon cancer HTC-116 cells; format: cell-based; settings: treatment 6 h, 72 h, 0.17% Lipofectamine 2000 or 0.1% Injectin, FIG. 20A
Protocol: as §1, §3
as §2, with “ASCT2” for “LAT1”

Substance: 6 (AACATCACGCTGCTCAACGGC; chemistry not given here) [compound 6]
- cell proliferation ([1]; 0.1% Injectin): decreased
- inhibiting sodium-independent [^14C]-L-leucine transport (LAT1): particularly effective
- [^14C]-L-leucine (0.25 μM) uptake at initial rate of uptake (1 min) (LAT1): decreased
- LAT1 mRNA relative abundance (LAT1 mRNA [2]): decreased

Substance: 22 (AACATTGTGCTGGCATTATAC; chemistry not given here) [compound 22]
- cell proliferation ([1]; 0.1% Injectin): decreased
- inhibiting sodium-independent [^14C]-L-leucine transport (LAT1): particularly effective
- [^14C]-L-leucine (0.25 μM) uptake at initial rate of uptake (1 min) (LAT1): decreased
- LAT1 mRNA relative abundance (LAT1 mRNA [2]): decreased

Substance: 34 (AAGGACATCTTCTCCGTCATC; chemistry not given here) [compound 34]
- cell proliferation ([1]; 0.1% Injectin): decreased
- inhibiting sodium-independent [^14C]-L-leucine transport (LAT1): particularly effective
- [^14C]-L-leucine (0.25 μM) uptake at initial rate of uptake (1 min) (LAT1): decreased
- LAT1 mRNA relative abundance (LAT1 mRNA [2]): decreased

Substance: 58/389/390 (sense UCGCCACCUACCUGCUCAATT; antisense UUGAGCAGGUAGGUGGCGATT; siRNA; sugars by position and backbone not given here; further chemistry not fully specified)
- Effect on cell proliferation compared with SEQ ID NO: 58 ([1]; 72 h, 0.1% Injectin, p<0.05): significantly greater
- cell proliferation ([1]; 0.1% Injectin): decreased
- proliferation [1]: significantly decreased
- LAT1 mRNA relative abundance (LAT1 mRNA [3]): significantly decreased

Substance: 58/389/412 (sense UCGCCACCUACCUGCUCAATT; antisense UUGAGCAGGUAGGUGGCGAUG; siRNA; sense: sugars from the 5' end r19 d2, backbone not given here; antisense: RNA, backbone not given here)
- Effect on cell proliferation compared with SEQ ID NO: 58 ([1]; 72 h, 0.1% Injectin, p<0.05): significantly greater
- cell proliferation ([1]; 0.1% Injectin): decreased

Substance: 61 (CGTGAACTGCTACAGCGTGAA; chemistry not given here) [compound 61]
- inhibiting sodium-independent [^14C]-L-leucine transport (LAT1): particularly effective
- [^14C]-L-leucine (0.25 μM) uptake at initial rate of uptake (1 min) (LAT1): decreased
- LAT1 mRNA relative abundance (LAT1 mRNA [2]): decreased

Substance: 61/393/394 (chain 1 UGAACUGCUACAGCGUGAATT; chain 2 UUCACUCUGUAGCAGUUCATT; siRNA; sugars by position and backbone not given here; further chemistry not fully specified)
- cell proliferation ([1]; 0.1% Injectin): decreased
- proliferation [1]: significantly decreased
- LAT1 mRNA relative abundance (LAT1 mRNA [3]): significantly decreased

Substance: 61/395/396 (chain 1 UGAACUGCUACAGCGUGAATT; chain 2 UUCACUCUGUAGCAGUUCACG; siRNA; chain 1: sugars from the 5' end r19 d2, backbone not given here; chain 2: RNA, backbone not given here)
- cell proliferation ([1]; 0.1% Injectin): decreased

Substance: 267/399/400 (sense GGUCCUGUACCGUCCUCAATT; antisense UUGAGGACGGUACAGGACCTT; siRNA; sugars by position and backbone not given here; further chemistry not fully specified)
- cell proliferation ([1]; 0.1% Injectin): decreased
- proliferation [1]: significantly decreased
- ASCT2 mRNA relative abundance (ASCT2 mRNA): significantly decreased

Substance: 267/401/402 (sense GGUCCUGUACCGUCCUCAATT; antisense UUGAGGACGGUACAGGACCGG; siRNA; sense: sugars from the 5' end r19 d2, backbone not given here; antisense: RNA, backbone not given here)
- Effect on cell proliferation compared with SEQ ID NO: 267/356/402 ([1]; 72 h, 0.1% Injectin, p<0.05): significantly greater
- cell proliferation ([1]; 0.1% Injectin): decreased

Substance: 278/405/406 (sense CCACGGUCGCCUCUGAGAATT; antisense UUCUCAGAGGCGACCGUGGTT; siRNA; sugars by position and backbone not given here; further chemistry not fully specified)
- Effect on cell proliferation compared with SEQ ID NO: 278/367/408 ([1]; 72 h, 0.1% Injectin, p<0.05): significantly greater
- cell proliferation ([1]; 0.1% Injectin): decreased
- proliferation [1]: significantly decreased
- ASCT2 mRNA relative abundance (ASCT2 mRNA): significantly decreased

Substance: 278/407/408 (sense CCACGGUCGCCUCUGAGAATT; antisense UUCUCAGAGGCGACCGUGGCA; siRNA; sense: sugars from the 5' end r19 d2, backbone not given here; antisense: RNA, backbone not given here)
- Effect on cell proliferation compared with SEQ ID NO: 278/367/408 ([1]; 72 h, 0.1% Injectin, p<0.05): significantly greater
- cell proliferation ([1]; 0.1% Injectin): decreased
